Assay results: US6428997B1, “Aminopeptidase derived from Bacillus licheniformis and process for preparation of natural type proteins” (LG Chemical Ltd., priority 1997, dated 2002)

Legend:
[1] = test system: aminopeptidase; experiment: Effect of chemical materials affecting enzyme activity of aminopeptidase; assay type: biochemical, Bacillus licheniformis
Description: (§1) In order to examine chemical materials affecting enzyme activity of aminopeptidase, enzyme activities of aminopeptidase treated for 2 hours with dithiotreitol, iodoacetic acid, ortho-phenanthroline and EDTA as 1, 5 and 20 mMJ respectively were measured.

[2] = biological target: T1, aminopeptidase of Bacillus licheniformis ATCC 12759 (N-terminal sequence SEQ ID NO: 3) (Bacillus licheniformis, UniProt Q65DH7); experiment: Effect of chemical materials on aminopeptidase activity (2 h treatment, leucine-p-nitroanilide substrate); assay type: biochemical; details: treated 2 hours, 0 mM = 100, read-out: relative activity
T1 sequence (Q65DH7 43-449 limits assumed): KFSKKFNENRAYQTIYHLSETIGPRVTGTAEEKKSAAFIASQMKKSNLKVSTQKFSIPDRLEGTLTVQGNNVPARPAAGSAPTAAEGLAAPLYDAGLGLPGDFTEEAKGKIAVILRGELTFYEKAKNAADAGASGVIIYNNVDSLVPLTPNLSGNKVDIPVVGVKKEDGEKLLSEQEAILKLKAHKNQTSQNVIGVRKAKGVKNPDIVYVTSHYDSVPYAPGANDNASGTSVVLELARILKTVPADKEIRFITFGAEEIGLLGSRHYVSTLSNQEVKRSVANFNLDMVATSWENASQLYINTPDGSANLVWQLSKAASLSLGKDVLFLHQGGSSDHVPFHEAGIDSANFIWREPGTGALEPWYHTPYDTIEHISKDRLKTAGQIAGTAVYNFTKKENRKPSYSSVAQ
Description: Aminopeptidase activities of this invention were measured by the method of Pfleiderer (Pfleiderer, Meth. Enzymol., 19, 514-521, 1970). Precisely, 1 U of enzyme activity defines the enzyme quantity changing 1 absorbance at 405 nm which is measured by the process adding aminopeptidase in 1 ml solution of […] Tris-Cl (pH 8.0) and 2 mM leucine-p-nitroanilide (Sigma, USA), incubating at 37° C. for 1 min, then adding 100 μl of 70% acetic acid to stop the reaction. At that time leucine-p-nitroanilide was dissolved in dimethylsulfoxide (DMSO) to make 100 mM solution.
as §1

[3] = Moore, Endocrinology 1988; cited from earlier work
[4] = aminopeptidase treated for 2 hours with 1 mM chemical
[5] = aminopeptidase treated for 2 hours with 5 mM chemical
[6] = aminopeptidase treated for 2 hours with 20 mM chemical

| Molecule | effect on aminopeptidase activity (in words) [1] | relative activity (%) [1, 4] [%] | relative activity (%) [1, 5] [%] | relative activity (%) [1, 6] [%] | activity at 1000 µM ([2]; pH 8, 1 mM chemical) [%] | activity at 5000 µM ([2]; pH 8, 5 mM chemical) [%] | activity at 20000 µM ([2]; pH 8, 20 mM chemical) [%] | biological activity compared with natural type HGH [3] |
| --- | --- | --- | --- | --- | --- | --- | --- | --- |
| O=C(O)CN(CCN(CC(=O)O)CC(=O)O)CC(=O)O [EDTA, ethylenediaminetetraacetic acid] | inhibited partially | 93.8 | 83.4 | 66.3 | – | – | – | – |
| O[C@H](CS)[C@H](O)CS (racemic) [dithiotreitol, dithiothreitol] | inhibited | 0.8 | 0 | 0 | – | – | – | – |
| c1cnc2c(c1)ccc1cccnc12 [ortho-penanthroline, ortho-phenanthroline] | inhibited | 91.9 | 86.8 | 4.7 | 91.9 | 86.8 | 4.7 | – |
| O=C(O)CI [iodoacetic acid] | inhibited | 98.1 | 104.2 | 0 | – | – | – | – |
| methionyl HGH: recombinant human growth hormone of 192 amino acids with Met-Phe-Pro-Thr sequence at the N-terminus | – | – | – | – | – | – | – | the same activity with that of natural type HGH |
